Where a name gives a salt, the structure may show the parent alone.
Target: human GPR40 (Homo sapiens, UniProt O14842)
Assay: FDSS-based intracellular calcium assay (Human GRP40 in vitro assay)
Format: cell-based
Design: 3xFLAG; expressed in transfected cells
Settings: cells expressing GPR40, intracellular Ca2+ response, FDSS reader; read-out: hGPR40 EC50
Procedure: To conduct the fluorescent imaging plate reader (FLIPR)-based calcium flux assay to measure intracellular Ca^2+ response, cells expressing GPR40 are plated on 384 well plates (BD BIOCOAT® #356697) at a density of 20,000 cells/20 μL medium per well in phenol red and serum-free DMEM (GIBCO® #21063-029) and incubated overnight. Using BD kit #s 80500-310 or -301, the cells are incubated with 20 μL per well of Hank's buffered salt solution with 1.7 mM probenecid and Fluo-3 at 37° C. for 30 min. Compounds are dissolved in DMSO and diluted to desired concentrations with assay buffer and added to the cells as 3× solution (20 μL per well). Run fluorescence/luminescence reader FDSS (Hamamatsu) to read intracellular Ca^2+ response.

Chain of human GPR40 (O14842 whole entry): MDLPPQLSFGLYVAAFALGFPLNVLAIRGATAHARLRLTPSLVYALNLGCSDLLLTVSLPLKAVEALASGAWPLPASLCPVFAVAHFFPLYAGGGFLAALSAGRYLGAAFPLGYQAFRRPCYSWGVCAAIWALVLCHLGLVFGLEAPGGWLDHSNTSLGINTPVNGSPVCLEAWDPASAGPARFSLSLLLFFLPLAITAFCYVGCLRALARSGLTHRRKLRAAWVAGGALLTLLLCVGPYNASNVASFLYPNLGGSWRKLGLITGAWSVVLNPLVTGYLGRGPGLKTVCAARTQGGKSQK

Q: How did the EC50 turn out when `COc1ccc(F)c(N2CCC(Oc3ccc(N4C[C@H](Oc5ccccc5)C[C@@H]4CC(=O)O)cc3)CC2)c1` [Example 6, 2-((2R,4R)-1-(4-((1-(2-Fluoro-5-methoxyphenyl)piperidin-4-yl)oxy)phenyl)-4-phenoxypyrrolidin-2-yl)acetic acid, HCl] was run?
A: 190 nM

Q: Which EC50 does the source give for `COc1ccc(F)c(N2CCC(Oc3ccc(N4C[C@H](Cc5ccccc5)C[C@@H]4CC(=O)O)cc3)CC2)c1` [Example 7, 2-((2R,4R)-4-Benzyl-1-(4-((1-(2-fluoro-5-methoxyphenyl)piperidin-4-yl)oxy)phenyl)pyrrolidin-2-yl)acetic acid, HCl] here?
A: 320 nM

Q: `COc1ccc(F)c(N2CCC(Oc3ccc(N4C[C@H](Cc5ccccc5)C[C@H]4CC(=O)O)cc3)CC2)c1` [Example 8, 2-((2S,4R)-4-Benzyl-1-(4-((1-(2-fluoro-5-methoxyphenyl)piperidin-4-yl)oxy)phenyl)pyrrolidin-2-yl)acetic acid, HCl] was tested. Which EC50 did it give?
A: 420 nM

Q: `COc1ccc(F)c(N2CCC(N(C)c3ccc(N4C[C@H](C(F)(F)F)C[C@@H]4CC(=O)O)cc3)CC2)c1` [Example 9, 2-((2R,4R)-1-(4-((1-(2-Fluoro-5-methoxyphenyl)piperidin-4-yl)(methyl)amino)phenyl)-4-(trifluoromethyl)pyrrolidin-2-yl)acetic acid, TFA] was tested. Which EC50 did it give?
A: 290 nM

Q: How did the EC50 turn out when `COc1ccc(F)c(N2CC[C@H](COc3ccc(N4C[C@H](C(F)(F)F)C[C@@H]4CC(=O)O)cc3)C2)c1` [Example 10, 2-((2R,4R)-1-(4-(((S)-1-(2-Fluoro-5-methoxyphenyl)pyrrolidin-3-yl)methoxy)phenyl)-4-(trifluoromethyl)pyrrolidin-2-yl)acetic acid, HCl] was run?
A: 940 nM

Q: For `COc1ccc(F)c(N2CC[C@@H](COc3ccc(N4C[C@H](C(F)(F)F)C[C@@H]4CC(=O)O)cc3)C2)c1` [Example 11, 2-((2R,4R)-1-(4-(((R)-1-(2-Fluoro-5-methoxyphenyl)pyrrolidin-3-yl)methoxy)phenyl)-4-(trifluoromethyl)pyrrolidin-2-yl)acetic acid, HCl], which EC50 is on record?
A: 630 nM

Q: How did the EC50 turn out when `COc1ccc(F)c(N2CCC(Oc3ccc(N4C[C@H](OC)C[C@@H]4CC(=O)O)cc3F)CC2)c1` [Example 15, 2-((2R,4R)-1-(3-Fluoro-4-((1-(2-fluoro-5-methoxyphenyl)piperidin-4-yl)oxy)phenyl)-4-methoxypyrrolidin-2-yl)acetic acid, HCl] was run?
A: 290 nM

Q: With `COc1cccc(N2CCC(Oc3ccc(N4C[C@H](C(F)(F)F)C[C@@H]4CC(=O)O)cc3)CC2)c1` [Example 19, 2-((2R,4R)-1-(4-((1-(3-Methoxyphenyl)piperidin-4-yl)oxy)phenyl)-4-(trifluoromethyl)pyrrolidin-2-yl)acetic acid, HCl] as the compound, how does the EC50 read?
A: 680 nM

Q: With `O=C(O)C[C@H]1C[C@@H](C(F)(F)F)CN1c1ccc(OC2CCN(c3ccccc3F)CC2)cc1` [Example 20, 2-((2R,4R)-1-(4-((1-(2-Fluorophenyl)piperidin-4-yl)oxy)phenyl)-4-(trifluoromethyl)pyrrolidin-2-yl)acetic acid, TFA] as the compound, how does the EC50 read?
A: 750 nM

Q: For `CCOc1cccc(N2CCC(Oc3ccc(N4C[C@H](C(F)(F)F)C[C@@H]4CC(=O)O)cc3)CC2)c1` [Example 21, 2-((2R,4R)-1-(4-((1-(3-Ethoxyphenyl)piperidin-4-yl)oxy)phenyl)-4-(trifluoromethyl)pyrrolidin-2-yl)acetic acid, HCl], which EC50 is on record?
A: 850 nM

Q: For `O=C(O)C[C@H]1C[C@@H](C(F)(F)F)CN1c1ccc(OC2CCN(c3ccccc3)CC2)cc1` [Example 22, 2-((2R,4R)-1-(4-((l-Phenylpiperidin-4-yl)oxy)phenyl)-4-(trifluoromethyl)pyrrolidin-2-yl)acetic acid, HCl], which EC50 is on record?
A: 1800 nM

Q: For `COc1cc(N2CCC(Oc3ccc(N4C[C@H](OC)C[C@@H]4CC(=O)O)cc3)CC2)c(F)cc1Cc1ccccc1` [Example 23, 2-((2R,4R)-1-(4-((1-(4-Benzyl-2-fluoro-5-methoxyphenyl)piperidin-4-yl)oxy)phenyl)-4-methoxypyrrolidin-2-yl)acetic acid, TFA], which EC50 is on record?
A: 3200 nM

Q: With `O=C(O)C[C@H]1C[C@@H](C(F)(F)F)CN1c1ccc(OC2CCN(c3cccc(OC(F)(F)F)c3)CC2)cc1` [Example 24, 2-((2R,4R)-1-(4-((1-(3-(Trifluoromethoxy)phenyl)piperidin-4-yl)oxy)phenyl)-4-(trifluoromethyl)pyrrolidin-2-yl)acetic acid, HCl] as the compound, how does the EC50 read?
A: 4100 nM

Q: How did the EC50 turn out when `COc1ccc(F)c(N2CCC(Oc3ccc(N4C[C@H](F)C[C@@H]4CC(=O)O)cc3)C(C)C2)c1` (stereo partly drawn) [Example 25, 2-((2S,4R)-4-Fluoro-1-(4-((1-(2-fluoro-5-methoxyphenyl)-3-methylpiperidin-4-yl)oxy)phenyl)pyrrolidin-2-yl)acetic acid, TFA] was run?
A: 77 nM

Q: `CCc1cc(F)c(N2CCC(Oc3ccc(N4C[C@H](OC)C[C@@H]4CC(=O)O)cc3)CC2)cc1OC` [Example 29, 2-((2R,4R)-1-(4-((1-(4-Ethyl-2-fluoro-5-methoxyphenyl)piperidin-4-yl)oxy)phenyl)-4-methoxypyrrolidin-2-yl)acetic acid, TFA] was tested. Which EC50 did it give?
A: 1100 nM

Q: How did the EC50 turn out when `COc1cc(N2CCC(Oc3ccc(N4C[C@H](OC)C[C@@H]4CC(=O)O)cc3)CC2)c(F)cc1CC(C)C` [Example 30, 2-((2R,4R)-1-(4-((1-(2-Fluoro-4-isobutyl-5-methoxyphenyl)piperidin-4-yl)oxy)phenyl)-4-methoxypyrrolidin-2-yl)acetic acid, TFA] was run?
A: 840 nM

Q: With `CCc1c(OC)ccc(F)c1N1CCC(Oc2ccc(N3C[C@H](OC)C[C@@H]3CC(=O)O)cc2)CC1` [Example 31, 2-((2R,4R)-1-(4-((1-(2-Ethyl-6-fluoro-3-methoxyphenyl)piperidin-4-yl)oxy)phenyl)-4-methoxypyrrolidin-2-yl)acetic acid, TFA] as the compound, how does the EC50 read?
A: 1100 nM

Q: How did the EC50 turn out when `COc1ccc(F)c(N2CCC(Oc3ccc(N4C[C@H](OC)C[C@@H]4CC(=O)O)cc3)CC2)c1Cc1ccccc1` [Example 32, 2-((2R,4R)-1-(4-((1-(2-Benzyl-6-fluoro-3-methoxyphenyl)piperidin-4-yl)oxy)phenyl)-4-methoxypyrrolidin-2-yl)acetic acid, TFA] was run?
A: 1700 nM

Q: For `COc1ccc(F)c(N2CCC(N(C)c3ccc(N4C[C@H](OC)C[C@@H]4CC(=O)O)cn3)CC2)c1` [Example 37, 2-((2R,4R)-1-(6-((1-(2-Fluoro-5-methoxyphenyl)piperidin-4-yl)(methyl)amino)pyridin-3-yl)-4-methoxypyrrolidin-2-yl)acetic acid, HCl], which EC50 is on record?
A: 3200 nM

Q: For `CCOc1ccc(F)c(N2CCC(Oc3ccc(N4C[C@H](c5ccccc5)C[C@@H]4CC(=O)O)cc3)C(C)C2)c1` (stereo partly drawn) [Example 41, 2-((2R,4S)-1-(4-(((3,4-trans)-1-(5-Ethoxy-2-fluorophenyl)-3-methylpiperidin-4-yl)oxy)phenyl)-4-phenylpyrrolidin-2-yl)acetic acid, HCl], which EC50 is on record?
A: 230 nM

Q: How did the EC50 turn out when `CCOc1ccc(F)c(N2[C@H](C)C[C@H](Oc3ccc(N4C[C@H](C(F)(F)F)C[C@@H]4CC(=O)O)cc3)C[C@@H]2C)c1` [Example 42, 2-((2R,4R)-1-(4-(((2R,4R,6S)-1-(5-Ethoxy-2-fluorophenyl)-2,6-dimethylpiperidin-4-yl)oxy)phenyl)-4-(trifluoromethyl)pyrrolidin-2-yl)acetic acid, HCl] was run?
A: 240 nM

Q: `CCOc1ccc(F)c(N2CCC(Oc3ccc(N4C[C@H](n5cnnn5)C[C@@H]4CC(=O)O)cc3)CC2)c1` [Example 45, 2-((2R,4R)-1-(4-((1-(5-Ethoxy-2-fluorophenyl)piperidin-4-yl)oxy)phenyl)-4-(1H-tetrazol-1-yl)pyrrolidin-2-yl)acetic acid, HCl] was tested. Which EC50 did it give?
A: 1900 nM

Q: How did the EC50 turn out when `CCOc1ccc(F)c(N2CCC(Oc3ccc(N4C[C@@H](OCc5ccccc5)C[C@@H]4CC(=O)O)cc3)CC2)c1` [Example 46, 2-((2R,4S)-4-(Benzyloxy)-1-(4-((1-(5-ethoxy-2-fluorophenyl)piperidin-4-yl)oxy)phenyl)pyrrolidin-2-yl)acetic acid, HCl] was run?
A: 650 nM

Q: How did the EC50 turn out when `COc1ccc(F)c(N2CCC(Oc3ccc(N4C[C@H](C(F)(F)F)C[C@@H]4CC(=O)O)cn3)CC2)c1` [Example 49, 2-((2R,4R)-1-(6-((1-(2-Fluoro-5-methoxyphenyl)piperidin-4-yl)oxy)pyridin-3-yl)-4-(trifluoromethyl)pyrrolidin-2-yl)acetic acid] was run?
A: 280 nM

Q: `COc1ccc(F)c(N2CCC(Oc3ccc(N4C[C@H](C(F)(F)F)C[C@H]4CC(=O)O)cn3)CC2)c1` [Example 50, 2-((2S,4R)-1-(6-((1-(2-Fluoro-5-methoxyphenyl)piperidin-4-yl)oxy)pyridin-3-yl)-4-(trifluoromethyl)pyrrolidin-2-yl)acetic acid] was tested. Which EC50 did it give?
A: 1500 nM

Q: `COc1ccc(F)c(N2C[C@@H](C)[C@H](Oc3ccc(N4C[C@H](OC)C[C@@H]4CC(=O)O)cc3)[C@@H](C)C2)c1` [Example 55, 2-((2R,4R)-1-(4-(((3S,4R,5R)-1-(2-Fluoro-5-methoxyphenyl)-3,5-dimethylpiperidin-4-yl)oxy)phenyl)-4-methoxypyrrolidin-2-yl)acetic acid, HCl] was tested. Which EC50 did it give?
A: 980 nM

Q: With `COc1ccc(F)c(N2C[C@@H](C)[C@@H](Oc3ccc(N4C[C@H](OC)C[C@@H]4CC(=O)O)cc3)[C@@H](C)C2)c1` [Example 56, 2-((2R,4R)-1-(4-(((3S,4S,5R)-1-(2-Fluoro-5-methoxyphenyl)-3,5-dimethylpiperidin-4-yl)oxy)phenyl)-4-methoxypyrrolidin-2-yl)acetic acid, HCl] as the compound, how does the EC50 read?
A: 2500 nM

Q: How did the EC50 turn out when `COc1ccc(Br)c(N2CCC(Oc3ccc(N4C[C@H](OC)C[C@@H]4CC(=O)O)cc3)CC2)c1` [Example 58, 2-((2R,4R)-1-(4-(1-(2-Bromo-5-methoxyphenyl)piperidin-4-yloxy)phenyl)-4-methoxypyrrolidin-2-yl)acetic acid, TFA] was run?
A: 140 nM
